# Laboratory results from patent publication US20240043435A1, “TYK-2 INHIBITOR” (BEIGENE, LTD., priority 2020, published 2024).
# pIC50: −log10 of the molar value.
# Legend:
# [1] = system: JAK2, TYK2/p-STAT4 (Tyr693) activated by IL-12 in NK-92 cell line; assay: IL-12-JAK2, TYK2/p-STAT4 (Tyr693) inhibition IC50 cellular assay; assay type: cell-based; settings: for pIC50: NK92, Cellular assay, read-out: pSTAT4/IL-12 IC50; for Selectivity fold (TYK2/JAK2): Cellular assay, pSTAT5/GM-CSF IC50 vs pSTAT4/IL-12 IC50
# Summary of the method: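 NK-92 cells were starved overnight without IL-2 and preincubated 1 h at 37° C with compound (8 doses, 10000–0.61 nM, 4-fold, 0.2% DMSO). They were then stimulated with IL-12 (40 ng/ml final) for 30 min. Lysate p-STAT4 (Tyr693) was read by AlphaLISA SureFire; IC50 from four-parameter logistic fit.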
# [2] = system: pSTAT5/GM-CSF; assay: pSTAT5/GM-CSF cellular assay (JAK2 selectivity); assay type: cell-based; settings: for Selectivity fold (TYK2/JAK2): pSTAT5/GM-CSF IC50 over pSTAT4/IL-12 IC50
# [3] = molecular target: T1, TYK2-JH2 (aa 575-869, in-house) protein (Homo sapiens, UniProt P29597); assay: TYK2-JH2 biochemical assay (HTRF probe displacement); assay type: binding; settings: Biochemical assay; read-out: TYK2-JH2 IC50
# T1 construct: TYK2-JH2 (aa 575-869, in-house) protein; made in house
# Summary of the method: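 Recombinant TYK2-JH2 (0.2 nM) was pre-incubated 0.5 h at room temperature with compounds (10 doses, 5-fold dilution; 500× DMSO stocks from 500 uM) in 20 mM HEPES pH 7.5, 10 mM MgCl2, 0.005% BSA, 2 mM DTT, 0.015% Brij-35. Probe displacement was read by HTRF (ex337, em620/665 nm); IC50 from four-parameter logistic fit.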
# T1 sequence (P29597 575-869): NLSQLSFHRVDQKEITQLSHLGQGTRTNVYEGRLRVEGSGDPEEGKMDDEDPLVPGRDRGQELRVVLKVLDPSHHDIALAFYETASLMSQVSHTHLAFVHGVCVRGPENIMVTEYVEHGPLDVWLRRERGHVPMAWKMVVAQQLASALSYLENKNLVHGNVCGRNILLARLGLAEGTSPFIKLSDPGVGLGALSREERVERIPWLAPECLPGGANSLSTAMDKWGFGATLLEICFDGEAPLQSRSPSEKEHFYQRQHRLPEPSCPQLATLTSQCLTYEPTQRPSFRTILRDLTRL
SMILES,pIC50 [1],pIC50 [2],pIC50 [3],Selectivity fold (TYK2/JAK2) [2] [fold],Selectivity fold (TYK2/JAK2) [1] [fold]
"CC(=O)Nc1cc(Nc2cc(OC(C)C)cc(S(C)(=O)=O)n2)c(-c2ccn(CCO)n2)cn1 [Example A14, N-(5-(1-(2-hydroxyethyl)-1H-pyrazol-3-yl)-4-((4-isopropoxy-6-(methylsulfonyl)pyridin-2-yl)amino)pyridin-2-yl)acetamide]",9.01,< 5.00,10.66,,>10319
"COC1CC(Oc2cc(Nc3cc(NC(C)=O)ncc3-c3ccn(C)n3)nc(S(C)(=O)=O)c2)C1 (stereo not shown) [Example J18, N-(4-((4-(3-methoxycyclobutoxy)-6-(methylsulfonyl)pyridin-2-yl)amino)-5-(1-methyl-1H-pyrazol-3-yl)pyridin-2-yl)acetamide]",9.40,< 5.00,10.55,>25062,
"CC(=O)Nc1cc(Nc2cc(OC(C)C)cc(S(C)(=O)=O)n2)c(-c2ccc(N3C[C@@H](C)O[C@@H](C)C3)cn2)cn1 [Example C4, N-(5-((cis)-2,6-dimethylmorpholino)-4′-((4-isopropoxy-6-(methylsulfonyl)pyridin-2-yl)amino)-[2,3′-bipyridin]-6′-yl)acetamide]",8.36,< 5.00,10.47,,>2298
"CC(=O)Nc1cc(Nc2cc(OC3CCC3)cc(S(C)(=O)=O)n2)c(-c2ccn(C)n2)cn1 [Example J44, N-(4-((4-cyclobutoxy-6-(methylsulfonyl)pyridin-2-yl)amino)-5-(1-methyl-1H-pyrazol-3-yl)pyridin-2-yl)acetamide]",9.45,< 5.00,10.66,>27932,
"CC(=O)Nc1cc(Nc2cc(C(F)F)cc(S(C)(=O)=O)c2)c(-c2ccc(C(C)(C)O)cn2)cn1 [Example H25, N-(4′-((3-(difluoromethyl)-5-(methylsulfonyl)phenyl)amino)-5-(2-hydroxypropan-2-yl)-[2,3′-bipyridin]-6′-yl)acetamide]",8.12,< 5.00,10.42,,>1328
"COc1ccc(-c2cnc(NC(C)=O)cc2Nc2cc(N3C[C@@H](C)O[C@@H](C)C3)cc(S(C)(=O)=O)n2)nn1 [Example A27, N-(4-((4-((2S,6R)-2,6-dimethylmorpholino)-6-(methylsulfonyl)pyridin-2-yl)amino)-5-(6-methoxypyridazin-3-yl)pyridin-2-yl)acetamide]",8.68,< 5.00,10.47,,>4761
"COCCOc1ccc(-c2cnc(NC(C)=O)cc2Nc2cccc(S(C)(=O)=O)c2)nc1 [Example D2, N-(5-(2-methoxyethoxy)-4′-((3-(methylsulfonyl)phenyl)amino)-[2,3′-bipyridin]-6′-yl)acetamide]",7.81,< 5.00,10.42,,>641
"CC(=O)Nc1cc(Nc2cc(C)cc(S(C)(=O)=O)n2)c(-c2ccc(O[C@H]3CCOC3)cn2)cn1 [Example B21, (S)-N-(4′-((4-methyl-6-(methylsulfonyl)pyridin-2-yl)amino)-5-((tetrahydrofuran-3-yl)oxy)-[2,3′-bipyridin]-6′-yl)acetamide]",9.35,5.60,10.33,,5620
"COCc1ccc(-c2cnc(NC(C)=O)cc2Nc2cc(OCCO)cc(S(C)(=O)=O)n2)nc1 [Example E6, N-(4′-((4-(2-hydroxyethoxy)-6-(methylsulfonyl)pyridin-2-yl)amino)-5-(methoxymethyl)-[2,3′-bipyridin]-6′-yl)acetamide]",8.57,< 5.00,10.54,,>3676
"COCc1ccc(-c2cnc(NC(C)=O)cc2Nc2cc(OC[C@@H](C)OC)cc(S(C)(=O)=O)n2)nc1 [Example E3, (R)-N-(5-(methoxymethyl)-4′-((4-(2-methoxypropoxy)-6-(methylsulfonyl)pyridin-2-yl)amino)-[2,3′-bipyridin]-6′-yl)acetamide]",9.19,< 5.00,10.46,,>15503
"COC1CN(c2cc(Nc3cc(NC(C)=O)ncc3-c3ccc(N4C[C@@H](C)O[C@@H](C)C4)cn3)nc(S(C)(=O)=O)c2)C1 [Example C25, N-(5-(cis-2,6-dimethyl-morpholino)-4′-((4-(3-methoxy-azetidin-1-yl)-6-(methylsulfonyl)pyridin-2-yl)amino)-[2,3′-bipyridin]-6′-yl)acetamide]",9.08,5.97,10.43,,1288

# Now from value to molecule, other results behind:
pIC50 [1],pIC50 [2],pIC50 [3],SMILES,Selectivity fold (TYK2/JAK2) [2] [fold],Selectivity fold (TYK2/JAK2) [1] [fold]
7.56,< 5.00,10.31,"COc1ccc(Nc2cc(NC(C)=O)ncc2-c2ccn(C)n2)nc1S(C)(=O)=O [Example J50, N-(4-((5-methoxy-6-(methylsulfonyl)pyridin-2-yl)amino)-5-(1-methyl-1H-pyrazol-3-yl)pyridin-2-yl)acetamide]",>361,
9.27,< 5.00,10.59,"CCn1ccc(-c2cnc(NC(C)=O)cc2Nc2cc(COC)cc(S(C)(=O)=O)n2)n1 [Example M7, N-(5-(1-ethyl-1H-pyrazol-3-yl)-4-((4-(methoxymethyl)-6-(methylsulfonyl)pyridin-2-yl)amino)pyridin-2-yl)acetamide]",>18621,
8.04,< 5.00,10.47,"CCn1ccc(-c2cnc(NC(C)=O)cc2Nc2cc(C)cc(S(C)(=O)=O)c2)n1 [Example M11, N-(5-(1-ethyl-1H-pyrazol-3-yl)-4-((3-methyl-5-(methylsulfonyl)phenyl)amino)pyridin-2-yl)acetamide]",>1107,
9.40,< 5.00,10.62,"CC(=O)Nc1cc(Nc2cc(OC(C)C)cc(S(C)(=O)=O)n2)c(-c2ccn([C@@H]3CCOC3)n2)cn1 [Example M34, (R)-N-(4-((4-isopropoxy-6-(methylsulfonyl)pyridin-2-yl)amino)-5-(1-(tetrahydrofuran-3-yl)-1H-pyrazol-3-yl)pyridin-2-yl)acetamide]",>24875,
8.18,< 5.00,10.08,"COc1cc(Nc2cc(NC(C)=O)ncc2-c2ccn(C)n2)cc(S(C)(=O)=O)c1 [Example J9, N-(4-((3-methoxy-5-(methylsulfonyl)phenyl)amino)-5-(1-methyl-1H-pyrazol-3-yl)pyridin-2-yl)acetamide]",>1529,
7.30,< 5.00,10.44,"COc1cc(Nc2cc(NC(C)=O)ncc2-c2ccn([C@@H]3CCOC3)n2)nc(S(C)(=O)=O)c1 [Example M35, (R)-N-(4-((4-methoxy-6-(methylsulfonyl)pyridin-2-yl)amino)-5-(1-(tetrahydrofuran-3-yl)-1H-pyrazol-3-yl)pyridin-2-yl)acetamide]",>199,
7.52,< 5.00,10.36,"CC(=O)Nc1cc(Nc2cc(OCCO)cc(S(C)(=O)=O)c2)c(-c2ccn(C)n2)cn1 [Example J56, N-(4-((3-(2-hydroxyethoxy)-5-(methylsulfonyl)phenyl)amino)-5-(1-methyl-1H-pyrazol-3-yl)pyridin-2-yl)acetamide]",>332,
8.50,< 5.00,10.28,"CC(=O)Nc1cc(Nc2cccc(S(=O)(=O)C3CC3)n2)c(-c2ccn(C)n2)cn1 [Example J28, N-(4-((6-(cyclopropylsulfonyl)py-ridin-2-yl)amino)-5-(1-methyl-1H-pyrazol-3-yl)pyridin-2-yl)acetamide]",>3184,
9.48,< 5.00,10.59,"CC(=O)Nc1cc(Nc2cncc(S(C)(=O)=O)n2)c(-c2ccc3c(n2)OC(C)(C)CO3)cn1 [Example Q28, N-(5-(3,3-dimethyl-2,3-dihydro-[1,4]dioxino[2,3-b]pyridine-6-yl)-4-((6-(methylsulfonyl)pyrazin-2-yl)amino)pyridine-2-yl)acetamide]",>30395,
8.52,< 5.00,10.59,"CC(=O)Nc1cc(Nc2cc(OCC#N)cc(S(C)(=O)=O)n2)c(-c2ccn(C)n2)cn1 [Example J20, N-(4-((4-(cyanomethoxy)-6-(methylsulfonyl)pyridin-2-yl)amino)-5-(1-methyl-1H-pyrazol-3-yl)pyridin-2-yl)acetamide]",>3333,
8.16,5.08,10.51,"CC(=O)Nc1cc(Nc2cc(OCC(C)O)cc(S(C)(=O)=O)n2)c(-c2cc(N3CCOCC3)n(C)n2)cn1 (stereo not shown) [Example O3, N-(4-((4-(2-hydroxypropoxy)-6-(methylsulfonyl)pyridin-2-yl)amino)-5-(1-methyl-5-morpholino-1H-pyrazol-3-yl)pyridin-2-yl)acetamide]",2109,
